According to US11167007B2, “FOXM1 modulators and uses thereof” (City of Hope, priority 2016, dated 2021):

Columns and labels:
[1] = molecular target: T1, AR with a 112 glutamine tract (Homo sapiens, UniProt P10275, INS80QQQQQQQQQQQQQQQQQQQQQQQQQQQQQQQQQQQQQQQQQQQQQQQQQQQQQQQQQQQQQQQQQQQQQQQQQQQQQQQQQQQQQQQQQ); assay: Androgen-responsive luciferase reporter assay in PC12 (ARQ112) neuronal cells; format: cell-based; details: PC12 cells expressing AR with 112 glutamine tract, FIG. 2B
T1 construct: expressed in transfected cells; host or cells: PC12 (ARQ112), inducible
T1 sequence (P10275 with tags, fused parts or gaps with the stated changes): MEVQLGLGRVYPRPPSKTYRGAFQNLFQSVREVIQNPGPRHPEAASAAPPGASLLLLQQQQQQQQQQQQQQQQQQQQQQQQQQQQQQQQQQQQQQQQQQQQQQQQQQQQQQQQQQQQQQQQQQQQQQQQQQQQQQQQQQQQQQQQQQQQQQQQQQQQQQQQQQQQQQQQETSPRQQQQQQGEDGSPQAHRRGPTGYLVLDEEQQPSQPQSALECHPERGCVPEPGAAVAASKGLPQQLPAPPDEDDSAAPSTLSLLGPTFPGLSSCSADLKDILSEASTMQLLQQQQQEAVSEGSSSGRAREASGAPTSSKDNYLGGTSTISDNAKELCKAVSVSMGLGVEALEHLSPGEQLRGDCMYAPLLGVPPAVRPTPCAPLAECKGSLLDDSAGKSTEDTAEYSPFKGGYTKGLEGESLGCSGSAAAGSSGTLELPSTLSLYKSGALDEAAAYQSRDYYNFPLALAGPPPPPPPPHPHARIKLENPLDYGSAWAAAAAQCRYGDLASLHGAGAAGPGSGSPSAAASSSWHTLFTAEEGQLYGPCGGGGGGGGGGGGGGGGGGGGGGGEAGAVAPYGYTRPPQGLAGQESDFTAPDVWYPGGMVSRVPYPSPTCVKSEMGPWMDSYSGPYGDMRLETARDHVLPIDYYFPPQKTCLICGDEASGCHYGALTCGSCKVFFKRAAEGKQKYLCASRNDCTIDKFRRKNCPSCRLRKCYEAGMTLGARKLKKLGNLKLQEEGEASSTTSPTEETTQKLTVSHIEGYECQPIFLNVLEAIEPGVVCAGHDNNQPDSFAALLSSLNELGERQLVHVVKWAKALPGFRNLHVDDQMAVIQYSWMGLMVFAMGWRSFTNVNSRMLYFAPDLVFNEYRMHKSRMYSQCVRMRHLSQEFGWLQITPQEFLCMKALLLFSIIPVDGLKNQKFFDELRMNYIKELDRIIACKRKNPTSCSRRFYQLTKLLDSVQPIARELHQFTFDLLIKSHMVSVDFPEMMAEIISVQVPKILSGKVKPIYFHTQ
Source text: Luciferase Reporter Assay. Cells were transfected using Lipofectamine Plus (Invitrogen) with a normalization plasmid (pRL-SV40, Promega) and an androgen responsive plasmid (MMTV-luciferase or PSA-luciferase) as described in Jones et al, ACS Chem Biol, 3(7):412-8 (2008), and, where indicated, with an shRNA plasmid targeting FOXM1 (adapted for mouse FOXM1 sequence targeting) a scrambled control shRNA plasmid, or ARQ24 or ARQ65 plasmids. Christensen et al, PLoS One, 8(1):e54556 (2013). The following day, cells and drugs were distributed to 96-well plates. 24 hours later, luciferase activity was assessed by a dual luciferase assay kit (Promega) on the Tecan plate reader. Samples were run in quadruplicates and a Student's t test was performed to determine significance, where p<0.05 was considered significant.
The ability of thiostrepton to inhibit AR activity in additional neuronal cells, including ReNcell CX cells PC12 cells, and in rat L6 skeletal muscle cells was examined (FIG. 2B). Donato et al, BMC Neurosci, 8:36 (2007); Yaffe, Proc Natl Acad Sci USA, 61(2):477-83 (1968).
SBMA is caused by the activity of polyglutamine-expanded AR, and experiments were conducted to investigate the effects of thiostrepton against polyglutamine-expanded AR. […]

AR-FOXM1 co-localization = format: cell-based, murine; details: GT1-7 CARY cells, 24 hours, FIG. 4B
Method: Cells were fixed in 2% paraformaldehyde prior to incubating with primary antibody (FOXM1: mouse, AbCam) overnight at 4° C. Following washing, secondary antibody (Alexa 954 goat anti-mouse, Invitrogen) was applied for 45 minutes at 37° C. After washing, slides were mounted and analyzed using a confocal microscope (Zeiss). The coloc-2 Image J plug-in (Fiji) was used to quantify co-localization of AR and FOXM1 from three independent samples using both Li's Intensity Correlation Quotient (ICQ) and Manders split coefficients co-localization values. One-way analysis of variance was applied to determine statistical significant among groups, where p<0.05 was considered significant.

AR = assay: Immunohistochemistry of AR in spinal cord and muscle tissue; format: in vivo, rat; details: rats, 100 mg/kg per day, four weeks
[2] = test system: AR activity in muscle or SV; assay: Weights of levator ani muscle and seminal vesicles at end of study; format: in vivo, rat; details: rats, compared to controls
Method: (§1) Animals and Drugs. This study was carried out in strict accordance with the recommendations in the Guide for the Care and Use of Laboratory Animals of the National Institutes of Health. All experiments were performed under the IUCAC approval of City of Hope. Animals were purchased from Jackson Laboratory (Bar Harbor, Main). For the pilot pharmacokinetic experiment, nine male Sprague Dawley rats (n=3) were administered 1, 10, or 100 mg/kg intraperitoneal injections thrice per week for four weeks. One hour following the final dose, blood and spinal fluid were collected and analyzed by mass spectrometry. For the efficacy experiment, rats were divided into 3 groups (n=7) as follows: intact, castrated, and thiostrepton. […] Following a treatment period of 7 days, rats were euthanized and organs harvested, weighed and processed for quantitative RT-PCR.
Androgens are known to control the growth and maintenance of the skeletal muscle and seminal vesicles. […] In order to investigate the impact of thiostrepton on these tissues, their weights at the end of the study were assessed. […] Because an equivalent androgen-dependent change in weight cannot be tested in motor neurons, the levels of tissue-selective androgen regulate genes, as a marker of AR activity, were assessed. […] RNA was isolated from spinal cord and LA muscle tissue and transcript levels were measured by RT-qPCR (FIG. 5F, FIG. 5H). […]

[3] = test system: AR activity in spinal cord; assay: RT-qPCR of androgen-regulated transcripts in spinal cord; format: in vivo, rat; details: rats, compared to control treatment, FIG. 5F
Method: as §1
(§2) qRT-PCR. The quantitative RT-PCR method has been described by Jones et al, ACS Chem Biol, 3(7):412-8 (2008). […] Differences between experimental (x) and control (y) samples were normalized to RPL19 transcript levels (androgen unresponsive) and determined with the following calculation: (2^(Ctsgene1-Ctygene1))/(2^(CtxRPL19-CtyRPL19)) One-way analysis of variance was applied to determine statistical significant among groups, where p<0.05 was considered significant. […]

AR activity in LA muscle = assay: RT-qPCR of androgen-regulated transcripts in LA muscle; format: in vivo, rat; details: rats, four genes, FIG. 5H
Method: as §1, §2

C=C(NC(=O)C(=C)NC(=O)c1csc(C2=N[C@@H]3c4csc(n4)[C@H]4NC(=O)c5csc(n5)[C@H]([C@](C)(O)[C@@H](C)O)NC(=O)[C@H]5CSC(=N5)/C(=C/C)NC(=O)[C@H]([C@@H](C)O)NC(=O)c5csc(n5)[C@]3(CC2)NC(=O)[C@H](C)NC(=O)C(=C)NC(=O)[C@H](C)NC(=O)[C@H]([C@@H](C)CC)N[C@@H]2C=Cc3c([C@H](C)O)cc(nc3[C@H]2O)C(=O)O[C@@H]4C)n1)C(N)=O [thiostrepton]
inhibition of AR activity (luciferase) [1]: efficiently inhibited AR activity | association (co-localization) between FOXM1 and AR (AR-FOXM1 co-localization): not significantly affected | AR expression in striated muscle tissue nuclei (IHC) (AR): not affected | AR levels in spinal cord neurons (IHC) (AR): not affected | levator ani (LA) muscle weight [2]: did not change | seminal vesicles (SV) weight [2]: did not change | androgen-dependent gene transcript levels in spinal cord [3]: decreases in three androgen-dependent genes | androgen-dependent gene transcript levels in LA muscle (AR activity in LA muscle): did not significantly affect
